The results in this text go back to EP0114387A1, “Bis-guanidine compound salts, their preparation and microbicidal use” (HOECHST AKTIENGESELLSCHAFT, priority 1982, dated 1984).

Common to all, as to experiment: Microbicidal activity, minimum inhibitory concentration to kill 10^6 germs per ml
Common to all, as to format: cell-based
Settings in all cases: room temperature, 10^6 Keime pro ml, read-out: minimale Hemmkonzentration

Assay [1] deals with Desulfovibrio desulfuricans 39. As to the method: (§1) Die mikrobiozide Wirkung der erfindungsgemäßen Verbindungen zeigt Tabelle I (µg Wirkstoff/ml Wasser; Kontaktzeit 24 und 48 h; Raumtemperatur). Die angegebenen Zahlen bedeuten die minimalen Hemmkonzentrationen, um die vorgelegte Keimzahl von 10^6 Keimen pro ml abzutöten.
In assay [2] the test system is Desulfovibrio desulfuricans 85. Here is the method:
as §1

The next assay relates to Pseudomonas aeruginosa. Here is the method: as §1
The subject of the next assay is Candida albicans. As to the method: as §1
Another assay deals with Proteus mirabilis. Here is the method: as §1
The next assay deals with Staphylococcus aureus. Here is the method: as §1
A further assay concerns Escherichia coli. As to the method:
as §1

In another assay the test system is Aspergillus niger. As to the method:
as §1

For the next assay, the system named is Klebsiella pneumoniae. Here is the method: as §1

≈ marks a conversion by molar mass, not a printed value. Read-outs that look alike come from different tables or passages of the source.

Take `CCCCCCCCCCN(CCCNC(=N)N)CCCNC(=N)N` [Beispiel 3]: the MIC was 15.6 µg/mL (≈ 43.9 µM) in [1] (contact time 24 h); 7.8 µg/mL (≈ 21.9 µM) in assay [1] (contact time 48 h); 7.8 µg/mL (≈ 21.9 µM) in assay [2] (contact time 24 h); 7.8 µg/mL (≈ 21.9 µM) in assay [2] (contact time 48 h); 500 µg/mL (≈ 1410 µM) in the assay with Pseudomonas aeruginosa (contact time 24 h); 62.5 µg/mL (≈ 176 µM) with Pseudomonas aeruginosa (contact time 48 h). Besides, the MIC in the assay on Candida albicans (contact time 24 h) amounted to 250 µg/mL (≈ 703 µM); in the assay with Candida albicans (contact time 48 h), 62.5 µg/mL (≈ 176 µM); with Proteus mirabilis (contact time 24 h), 250 µg/mL (≈ 703 µM); in the assay on Proteus mirabilis (contact time 48 h), 62.5 µg/mL (≈ 176 µM); with Staphylococcus aureus (contact time 24 h), 250 µg/mL (≈ 703 µM); with Staphylococcus aureus (contact time 48 h), 62.5 µg/mL (≈ 176 µM). Further, the MIC in the assay on Escherichia coli (contact time 24 h) was 250 µg/mL (≈ 703 µM); in the assay with Escherichia coli (contact time 48 h), 62.5 µg/mL (≈ 176 µM); with Aspergillus niger (contact time 24 h), above 1000 µg/mL; in the assay with Aspergillus niger (contact time 48 h) it was above 1000 µg/mL; in the assay with Klebsiella pneumoniae (contact time 24 h), 500 µg/mL (≈ 1410 µM); with Klebsiella pneumoniae (contact time 48 h), 62.5 µg/mL (≈ 176 µM).
